Experimental data reported in patent US20100317605A1, “THE USE OF EPIMEDIUM FLAVONES AND EFFECTIVE COMPONENTS THEREOF FOR THE PREPARATION OF MEDICAMENTS OF PROMOTING PROLIFERATIONS AND DIFFERENTIATIONS OF NERVE CELLS” (XUANWU HOSPITAL OF CAPITAL MEDICAL UNIVERSITY, priority 2007, published 2010).

Legend:
[1] = system: primary cultured neural stem cells (NSC); assay: Survival and proliferation of primary cultured neural stem cells (neurospheres) in medium without growth factors; assay type: cell-based, SD rats
Procedure: The brains were taken from neonatal 1 day SD rats under a sterile condition, and the hippocampi were isolated and placed in culture dish containing a small amount of high glucose DMEM/F12; the meninges and blood vessels were divested, and the tissue was cut into small pieces, added with 5 ml cell culture medium, lightly blown and beaten into cell suspension with flame polished Pasteur sucker, and filtered by 400 screen mesh. The ratio of living cells was counted by trypan-blue staining. After the counting, the cells were placed into a 25 ml culture flask at a density of 2×10^6 cells/ml. Basal culture medium DMEM/F12 (1:1), cofactor B27(2%) and growth factor EGF (20 ng/ml)+bFGF (10 ng)/ml) were needed for conventional culture of NSC, and the cells grew as floating spheres in the culture medium. In order to observe the effect of different concentrations of epimedium flavanoide and its effective ingredient […] on primary cultured NSC, basal culture medium DMEM/F12 (1:1) and B27(2%) were used without growth factor, and epimedium flavanoide or […] final concentration of 10, 50, 100, 200, 400 μg/ml was added respectively. Cultures were maintained at 37° C. in a humidified atmosphere of 95% air/5% CO2. The growth state of the cells was observed under inverted microscope, and the diameter of the neurospheres was measured by micro ruler. The identification of neural stem cells: the neurospheres were taken, the culture medium containing growth factor EGF and bFGF were removed, DMEM/F12 containing 10% FBS was added, and inoculated in 24-well culture plates covered with polylysine. After 16 hours of culture, nestin and doublecortin (DCX) immunocytochemical staining was performed.

[2] = system: neural stem cells; assay: Differentiation of neural stem cells (second generation neurospheres) in medium without FBS; assay type: cell-based, SD rats
Procedure: The second generation of neurospheres in culture was taken, and the culture medium containing growth factors in the culture flask was removed. The neurospheres were randomly divided into two groups: (1) fetal bovine serum (FBS) control group: the culture medium was DMEM/F12+1% FBS; (2) epimedium flavanoide treatment group: the culture medium was DMEM/F12 (without FBS) added with epimedium flavanoide at a final concentration of 10, 50, 100, 200 and 400 μg/ml, respectively; (3) […] treatment group: the culture medium was DMEM/F12 (without FBS) added with […] final concentration of 10, 50, 100, 200 and 400 μg/ml, respectively. The three groups of the cells were inoculated in 24-well culture plates covered with polylysine. After 7 days of culture, the morphology of the cells was observed under inverted microscope, and fluorescent immunostaining was performed and photographed.

[3] = without fetal bovine serum, 7 days, vs FBS group, P<0.01 (FIG. 4)
[4] = without fetal bovine serum, 7 days, vs FBS group, P<0.01 (FIG. 5)

COc1ccc(-c2oc3c(CC=C(C)C)c(OC4OC(CO)C(O)C(O)C4O)cc(O)c3c(=O)c2OC2OC(C)C(O)C(O)C2O)cc1 (centres unmarked) [icarrin, 3-((6-deoxymannopyranosyl)oxo)-7-(pyranoglucosyloxo)-5-hydroxy-2-(4-methoxyphenyl)-8-(3-methyl-2-butenyl)-4H-1-benzopyran-4-one]
growth state of neurospheres ([1]; 100 μg/ml, DMEM/F12 without growth factors, 7 days (FIG. 1D)): floating neurospheres were observed
growth state and volume of neurospheres ([1]; 100 μg/ml, DMEM/F12 without growth factors, 28 days (FIG. 1E)): the neurospheres still grew well, and their volume further increased
formation of floating neurospheres ([1]; 10-400 μg/ml, DMEM/F12 without growth factors, 7 days): many floating neurospheres were formed
growth and volume of neurospheres ([1]; 100-200 μg/ml groups, without growth factors, 28 days): still grew well, but also became significantly larger in volume
diameter of neurospheres ([1]; without serum and growth factors, vs control group at 7, 14, 28 days, P<0.01 (FIG. 2)): increased gradually as the incubation time prolonged
morphology of differentiated cells ([2]; 50 μg/ml, DMEM/F12 without FBS, 7 days (FIG. 3D)): the neurospheres grew well and almost completely adhered, and differentiated well
growth, adhesion and differentiation of neurospheres ([2]; 50, 100 μg/ml, without FBS, 7 days): the neurospheres grew well, almost completely adhered, and differentiated well
distance of cell migration [2, 3]: farther
length of processes of differentiated cells grown from the neurospheres [2, 3]: longer
length of the axons of neurons [2, 4]: longer
number of NF-200 positive cells (mature neurons) [2, 4]: increased
